Measured values: patent US3980794A, “Method for promoting growth of poultry with 3-(5-nitro-2-imidazolyl)pyrazoles” (Eli Lilly and Company, priority 1975, dated 1976)
In brackets after ≈: the same amount, converted by molar mass.

Columns and labels:
[1] = test system: Bacteroides fragilis sp. vulgatus 1211; assay: Susceptibility of anaerobic bacteria, agar dilution; assay type: cell-based; conditions: Bacteroides fragilis, 24 h, read-out: 24 Hr. Minimum Inhibitory Concentration
[2] = test system: Clostridium innocuum 1373; assay: as above; assay type: cell-based; conditions: [Clostridium] innocuum, 1373, 24 h, read-out: 24 Hr. Minimum Inhibitory Concentration
[3] = test system: Propionibacterium acnes 44; assay: as above; assay type: cell-based; conditions: Cutibacterium acnes, 24 h; Propionibacterium acnes 44; read-out: 24 Hr. Minimum Inhibitory Concentration
[4] = test system: Actinomyces bovis 13684; assay: as above; assay type: cell-based; conditions: Actinomyces bovis, 13684, 24 h, read-out: 24 Hr. Minimum Inhibitory Concentration
[5] = test system: Salmonella typhimurium; assay: Activity against Salmonella typhimurium in chicks when administered in the feed (Experiment 4); assay type: in vivo; conditions: for Final Avg. Chicken Wt.: tenth day
Method: The activity of certain of the nitroimidazoles against Salmonella typhimurium in chicks when administered in the feed was determined.
One-day-old chicks, divided into groups of 12, were given compound 1, 6, or 7 in the feed at levels of 100 g. per ton, 50 g. per ton, 25 g. per ton, and 10 g. per ton continuously throughout the experiments. Several replicates of nonmedicated infected control groups were included. Later on day 1, all replicates were given 50.0 ml. of a tryptose broth culture of S. typhimurium as their initial liquid for drinking. This was placed in the cage waterer and served as the challenge.
Daily records of mortality were maintained and survivors were weighed on the tenth day of the experiment, the day of termination. The compounds tested are identified by the numbers 1, 6, and 7, as set forth hereinabove. In the chart, column 1 lists the test compound; column 2, the dosage level of test compound in grams per ton of feed; column 3 lists the number of replicates run on each compound at each dosage level; column 4 lists the survival ratio; and column 5, the final average chicken weight.

[6] = test system: Clostridium perfringens 81; assay: microbe, parasite or virus in culture; assay type: cell-based; conditions: Clostridium perfringens, 81, 24 h, read-out: 24 Hr. Minimum Inhibitory Concentration
[7] = test system: E. coli; assay: Oral activity against E. coli infection in chickens (Experiment 6); assay type: in vivo
Method: The evaluation of the effectiveness of selected nitroimidazoles for their oral activity against E. coli infection in chickens was accomplished as follows.
Broiler type, five-week-old chickens were wing-banded and individually weighed. Replicates of 8 chickens, each replicate having the same average chicken weight, were formed. Three replicates were run for each treatment. Treatment was initiated via the feed 24 hours prior to challenge. The E. coli challenge strain was No. 2- 1- 8. The challenge inoculum consisted of 0.5 ml. of 10^-^1 dilution of a 15-18 hour tryptose broth culture administered into the right thoracic air sac of each chicken. Eight to ten days following challenge, all surviving chickens were weighed and examined for lesions. Any chicken that died during the experiment was also examined for lesions such as air sac lesions, pericarditis lesions, and perihepatitis lesions, and a culture made. The pre-treatment average weight per bird was 790 g. The test compounds were the same as before, identified as 1, 6, and 7.

[8] = test system: Peptostreptococcus intermedius 1264; assay: Susceptibility of anaerobic bacteria, agar dilution; assay type: cell-based; conditions: 24 h; Peptostreptococcus intermedius 1264; read-out: 24 Hr. Minimum Inhibitory Concentration
[9] = test system: Bacteroides fragilis sp. fragilis 1877; assay: as above; assay type: cell-based; conditions: Bacteroides fragilis, 24 h, read-out: 24 Hr. Minimum Inhibitory Concentration
[10] = test system: Fusobacterium symbiosum 1470; assay: as above; assay type: cell-based; conditions: Fusobacterium, 1470, 24 h, read-out: 24 Hr. Minimum Inhibitory Concentration
[11] = test system: Clostridium ramosum 1313; assay: as above; assay type: cell-based; conditions: Thomasclavelia ramosa, 1313, 24 h, read-out: 24 Hr. Minimum Inhibitory Concentration
[12] = test system: Pasteurella multocida; assay: Oral activity against Pasteurella multocida-caused infection in chickens (Experiment 5A); assay type: in vivo; conditions: 100 g./ton in feed
Method: A. Selected examples of the novel compounds were evaluated for their oral activity against Pasteurella multocida-caused infection in chickens. Four to five-week-old chickens were divided into groups of eight, and the compounds administered thereto in the feed. Two replicates were run for each compound. Twenty-four hours after the chickens began receiving the compound in their feed, the treated groups, as well as the nontreated control groups, were challenged intravenously with a broth culture of P. multocida. […] The chicks were observed during seven days following the challenge and the mortality in the treated groups was compared to that of the control group. The heart and liver were removed from each chicken which died during the test and cultured to determine the presence of P. multocida. At the termination of the test, all surviving chickens were sacrificed, the heart and liver removed from each chicken and cultured to determine the presence of P. multocida.

[13] = test system: P. multocida; assay: Oral activity against P. multocida in turkeys (Experiment 5B); assay type: in vivo; conditions: 100 g./ton in feed
[14] = test system: Fusobacterium necrophorum 13859; assay: Susceptibility of anaerobic bacteria, agar dilution; assay type: cell-based; conditions: Fusobacterium necrophorum, 13859, 24 h, read-out: 24 Hr. Minimum Inhibitory Concentration
[15] = test system: Veillonella alcalescens 1; assay: as above; assay type: cell-based; conditions: Veillonella parvula, 1, 24 h, read-out: 24 Hr. Minimum Inhibitory Concentration
[16] = test system: Bacteroides fragilis sp. thetaiotaomicron 1438; assay: as above; assay type: cell-based; conditions: Bacteroides fragilis, 24 h, read-out: 24 Hr. Minimum Inhibitory Concentration
[17] = test system: Peptococcus anaerobius 1428; assay: as above; assay type: cell-based; conditions: 24 h, read-out: 24 Hr. Minimum Inhibitory Concentration
[18] = test system: Eubacterium aerofaciens 1235; assay: as above; assay type: cell-based; conditions: Collinsella aerofaciens, 1235, 24 h, read-out: 24 Hr. Minimum Inhibitory Concentration

SMILES | MIC [1] [µg/mL] | MIC [2] [µg/mL] | MIC [3] [µg/mL] | MIC [4] [µg/mL] | Survival Ratio ([5]; 10 g./ton in feed) | Final Avg. Chicken Wt. ([5]; 10 g./ton in feed) [g] | Survival Ratio ([5]; 25 g./ton in feed) | Final Avg. Chicken Wt. ([5]; 25 g./ton in feed) [g] | Survival Ratio ([5]; 50 g./ton in feed) | Final Avg. Chicken Wt. ([5]; 50 g./ton in feed) [g] | MIC [6] [µg/mL] | MIC [8] [µg/mL] | MIC [9] [µg/mL] | MIC [10] [µg/mL] | MIC [11] [µg/mL] | MIC [14] [µg/mL] | MIC [15] [µg/mL] | MIC [16] [µg/mL] | MIC [17] [µg/mL] | MIC [18] [µg/mL] | further results
Cn1nc(-c2ncc([N+](=O)[O-])n2C)c(C#N)c1N [Compound 1, 5-Amino-1-methyl-3-(1-methyl-5-nitro-2-imidazolyl)pyrazole-4-carbonitrile] | < 0.125 | < 0.125 | > 32 | < 0.125 | 28/36 | 97 | 36/36 | 121 | 36/36 | 116 | < 0.125 | 0.5 (≈ 2.02 µM) | < 0.125 | < 0.125 | < 0.125 | < 0.125 | < 0.125 | < 0.125 | < 0.125 | < 0.125 | Survival Ratio ([5]; 100 g./ton in feed): 35/36; Final Avg. Chicken Wt. ([5]; 100 g./ton in feed): 105 g; Avg. Wt./Chicken ([7]; 100 g./ton in feed): 1058 g; No. chickens with lesions/No. in group ([7]; 100 g./ton in feed): 16/24; Survival Ratio ([7]; 100 g./ton in feed): 24/24; Avg. Wt./Chicken ([7]; 200 g./ton in feed): 1104 g; No. chickens with lesions/No. in group ([7]; 200 g./ton in feed): 8/24; Survival Ratio ([7]; 200 g./ton in feed): 24/24; Avg. Wt./Chicken ([7]; 300 g./ton in feed): 1014 g; No. chickens with lesions/No. in group ([7]; 300 g./ton in feed): 1/24; Survival Ratio ([7]; 300 g./ton in feed): 24/24; Culture Isolation P. multocida ([12]; replicate 1): 0/ 8; Survival Ratio ([12]; replicate 1): 8/ 8; Culture Isolation P. multocida ([12]; replicate 2): 1/ 8; Survival Ratio ([12]; replicate 2): 8/ 8; Culture Isolation P. multocida ([12]; total): 1/16; Survival Ratio ([12]; total): 16/16; Culture Isolation P. multocida [13]: 0/5; Survival Ratio [13]: 5/5
Cn1nc(-c2ncc([N+](=O)[O-])n2C)c(C(N)=O)c1N [Compound 2, 5-Amino-1-methyl-3-(1-methyl-5-nitro-2-imidazolyl)pyrazole-4-carboxamide] | < 0.125 | < 0.125 | 0.5 (≈ 1.89 µM) | < 0.125 | – | – | – | – | – | – | < 0.125 | 1 (≈ 3.77 µM) | < 0.125 | < 0.125 | < 0.125 | < 0.125 | < 0.125 | < 0.125 | < 0.125 | < 0.125 | –
COC=Nc1c(C#N)c(-c2ncc([N+](=O)[O-])n2C)nn1C [Compound 6, Methyl N-[4-cyano-1-methyl-3-(1-methyl-5-nitro-2-imidazolyl)pyrazol-5-yl]formimidate] | < 0.125 | < 0.125 | > 32 | < 0.125 | 33/36 | 110 | 36/36 | 119 | 35/36 | 125 | < 0.125 | 1 (≈ 3.46 µM) | < 0.125 | < 0.125 | < 0.125 | < 0.125 | < 0.125 | < 0.125 | < 0.125 | < 0.125 | Survival Ratio ([5]; 100 g./ton in feed): 33/36; Final Avg. Chicken Wt. ([5]; 100 g./ton in feed): 101 g; Avg. Wt./Chicken ([7]; 100 g./ton in feed): 1098 g; No. chickens with lesions/No. in group ([7]; 100 g./ton in feed): 11/24; Survival Ratio ([7]; 100 g./ton in feed): 24/24; Avg. Wt./Chicken ([7]; 200 g./ton in feed): 1059 g; No. chickens with lesions/No. in group ([7]; 200 g./ton in feed): 1/24; Survival Ratio ([7]; 200 g./ton in feed): 24/24; Avg. Wt./Chicken ([7]; 300 g./ton in feed): 1055 g; No. chickens with lesions/No. in group ([7]; 300 g./ton in feed): 6/24; Survival Ratio ([7]; 300 g./ton in feed): 24/24; Culture Isolation P. multocida ([12]; replicate 1): 0/ 8; Survival Ratio ([12]; replicate 1): 8/ 8; Culture Isolation P. multocida ([12]; replicate 2): 0/ 8; Survival Ratio ([12]; replicate 2): 8/ 8; Culture Isolation P. multocida ([12]; total): 0/16; Survival Ratio ([12]; total): 16/16; Culture Isolation P. multocida [13]: 0/5; Survival Ratio [13]: 5/5
